Results taken from paper PMC6825270 (Proceedings of the National Academy of Sciences of the …, 2019).

Key:
[1] = molecular target: human MOPr (hMOPr) (Homo sapiens, UniProt P35372); assay: Inhibition of forskolin-stimulated cAMP formation in hMOPr HEK cells; assay type: cell-based; details: 10 µM
[2] = molecular target: human μ-opioid receptor (hMOPr) (human) (UniProt P35372); assay: radioligand binding
[3] = molecular target: mouse MOPr (mMOPr) (Mus musculus, UniProt P42866); assay: GGIRK activation in AtT20 cells expressing mMOPr, perforated patch; assay type: cell-based
[4] = molecular target: MOPr (Mus musculus, UniProt P42866); assay type: cell-based; details: GRK2-positive cells, saturating concentrations
[5] = molecular target: human κ-opioid receptor (hKOPr) (human) (UniProt P41145); assay: radioligand binding
[6] = molecular target: human δ-opioid receptor (hDOPr) (human) (UniProt P41143); assay: radioligand binding

Sequence of human MOPr (hMOPr) (P35372 whole entry): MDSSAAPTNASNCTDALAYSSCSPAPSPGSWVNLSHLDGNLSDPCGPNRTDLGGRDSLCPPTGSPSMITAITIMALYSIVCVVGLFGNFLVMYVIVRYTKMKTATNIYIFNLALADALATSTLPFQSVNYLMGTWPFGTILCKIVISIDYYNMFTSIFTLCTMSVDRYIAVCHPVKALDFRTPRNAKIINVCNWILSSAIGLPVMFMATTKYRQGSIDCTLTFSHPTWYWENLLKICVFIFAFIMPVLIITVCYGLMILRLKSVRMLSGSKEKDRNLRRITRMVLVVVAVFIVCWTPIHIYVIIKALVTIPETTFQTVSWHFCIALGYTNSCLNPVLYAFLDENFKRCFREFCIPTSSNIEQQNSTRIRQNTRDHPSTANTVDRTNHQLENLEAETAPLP

Molecule | Inhibition of cAMP formation / MOPr activity, in words [1] | Ki [2] [nM] | further results
H-FVvf-NH2 [1g] | generally inactive | – | –
bilaid A (FvVf-OH) (peptide) | – | 3100 | –
bilaid C (YvVf-OH) (peptide) | – | 210 | –
COc1ccsc1CNCC[C@@]1(c2ccccn2)CCOC2(CCCC2)C1 [oliceridine] | – | – | GGIRK activation in AtT20 cells, in words [3]: significantly less efficaciously than either morphine or bilorphin; MOPr internalization with overexpressed GRK2-YFP and β-arrestin 2-HA, in words [4]: clear internalization signals
H-fVvF-OH [1b] | generally inactive | – | –
H-fVvF-NH2 [1f] | generally inactive | – | –
bilorphin ([Dmt]vVf-NH2) (peptide) | – | – | Ki [5]: 770 nM; Ki [6]: 190 nM
H-FVvf-OH [1c] | generally inactive | – | –
H-fvVF-OH [1d] | generally inactive | – | –
FVVF (D-Val at 2, D-Phe at 4; C-terminal amide) [C-terminally amidated bilaid A (1e)] | – | 750 | –
